This is an account of results in patent publication US20180325825A1 (GEMPHIRE THERAPEUTICS INC., priority 2015, published 2018).

For series [1] the following is noted: background statement, cited from earlier work.
Series [2] can be described thus: Pharmacokinetics of prototype combinations of atorvastatin and gemcabene after a single oral dose to male dogs. To be noted: 150 mg gemcabene IR, composite data from all animals. In kind it is in vivo, male purebred beagle dogs.

Consider `CC(C)(CCCCOCCCCC(C)(C)C(=O)O)C(=O)O` [gemcabene, 6,6′-oxybis(2,2-dimethylhexanoic acid)], for which, in series [1], the “completeness of intestinal absorption in absence or presence of food” value is recorded as “essentially unchanged”; the “effect on the pharmacokinetics of simvastatin and atorvastatin in vivo” value is “not to significantly affect”. Moreover, the “absorption in the intestines” value in series [1] (oral) is recorded as “almost complete absorption”. The “gemcabene pharmacokinetic profile in combination with atorvastatin prototype versus administered alone” value in series [2] is given as “essentially the same”.
